{"source": "patent US20070077552A1", "about": "“High throughput screen for inhibitors of polypeptide aggregation” (priority 2005, published 2007)", "key": {"Aβ": {"tested_on": "Aβ", "conditions": "cited from earlier work"}, "Aβ42": {"target": "Aβ42 (Homo sapiens, UniProt P05067)", "sequence (P05067 672-713 limits assumed, species assumed)": "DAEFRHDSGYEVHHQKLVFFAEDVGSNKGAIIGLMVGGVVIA", "conditions": "shown previously (35, 36); cited from earlier work"}, "[1]": {"target": "T1, Aβ42-linker-GFP fusion protein (Homo sapiens, UniProt P05067)", "T1 construct": "Wild-type Aβ42-linker-GFP was expressed in the absence (gray) or presence (black) of 10 μM tannic acid; host or cells: cell-free E. coli T7 S30 extract system for circular DNA", "T1 sequence (P05067 with tags, fused parts or gaps)": "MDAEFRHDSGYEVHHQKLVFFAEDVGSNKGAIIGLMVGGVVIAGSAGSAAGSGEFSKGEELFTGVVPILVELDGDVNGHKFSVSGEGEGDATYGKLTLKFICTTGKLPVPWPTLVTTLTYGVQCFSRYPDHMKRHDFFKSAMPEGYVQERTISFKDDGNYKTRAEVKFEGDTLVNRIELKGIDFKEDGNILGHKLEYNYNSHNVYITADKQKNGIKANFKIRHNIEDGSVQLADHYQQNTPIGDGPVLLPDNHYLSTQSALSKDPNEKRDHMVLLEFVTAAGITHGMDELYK", "assay": "Cell-free Aβ42-linker-GFP fluorescence assay", "assay_type": "biochemical", "conditions": "10 μM, cell-free system", "procedure": "In one embodiment, the assay uses a vector encoding Aβ42-linker-GFP in a cell-free in vitro transcription and translation system. For example, the basic protocol of the cell-free assay can involve the following steps: 1) Culture 500 ml to 1L of E. coli X1Blue strain harboring Aβ-linker-GFP fusion vector until the density of the suspension reaches O.D 0.9; 2) At O.D 0.9, spin down the cells at 4,000 g for 15 min; 3) Extract the vector using the Qiagen plasmid mega kit. (Cat. No. 12183); 4) After extraction, remove contaminants using phenol extraction; 5) Add E. coli T7 S30 extract system for circular DNA (Promega, Cat. No. L1130) into each well of a 96-well plate; 6) Add control or test substances (e.g. putative drug molecules or vectors that express inhibitory polypeptide) to each well; 7) Add Aβ-linker-GFP fusion vector, and express at RT or at 37 ° C. for 3 hrs; and 8) Measure the fluorescence emission at 510 nm (using an excitation at 490 nm). One of skill in the art will recognize that other transcription/translation systems, or a modified system, can be used. Likewise, the details of the protocol can be varied and optimized to accommodate other amyloidogenic proteins, to enhance the relative fluorescence, to accommodate the needs of the assayist, or a combination thereof.\nFIG. 8 illustrates the inhibition of fluorescence of Aβ42-linker-GFP in a cell free system. […]"}}, "data": [{"molecule": "CCc1nc(Nc2cccc(O)c2)nc(Nc2cccc(O)c2)n1", "note": "[RS-0466]", "values": [{"measurement": "Aβ oligomerization", "setting": "Aβ", "value": "block Aβ oligomerization"}, {"measurement": "long-term potentiation", "setting": "Aβ", "value": "rescue long-term potentiation"}]}, {"molecule": "NCCc1ccc(O)c(O)c1", "note": "[dopamine]", "values": [{"measurement": "inhibition of Aβ42 aggregation", "setting": "Aβ42", "value": "inhibit A42 aggregation"}]}, {"molecule": "O=C(OC[C@H]1O[C@@H](OC(=O)c2cc(O)c(O)c(OC(=O)c3cc(O)c(O)c(O)c3)c2)[C@H](OC(=O)c2cc(O)c(O)c(OC(=O)c3cc(O)c(O)c(O)c3)c2)[C@@H](OC(=O)c2cc(O)c(O)c(OC(=O)c3cc(O)c(O)c(O)c3)c2)[C@@H]1OC(=O)c1cc(O)c(O)c(OC(=O)c2cc(O)c(O)c(O)c2)c1)c1cc(O)c(O)c(OC(=O)c2cc(O)c(O)c(O)c2)c1", "note": "[tannic acid]", "values": [{"measurement": "inhibition of Aβ42 aggregation", "setting": "Aβ42", "value": "inhibit A42 aggregation"}, {"measurement": "fluorescence of wild-type Aβ42-linker-GFP / inhibition of aggregation", "setting": "[1]", "value": "partially inhibits aggregation"}]}]}
